# According to ChEMBL document CHEMBL1201862, “PubChem BioAssay data set” (2004):
# Activity calls are given as the source filed them.
# Legend:
# [1] = biological target: FAD-linked sulfhydryl oxidase ALR (Homo sapiens, UniProt P55789); test: inhibitors of human ALR sulfhydryl oxidase, dose response, biochemical, H2O2 detection, luminescence, cherry-pick (AID 493248)
# H9c2 = test: cells; format: functional, cell-based; conditions: Rattus norvegicus, H9c2, Myocardium;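 also: confirmatory concentration-response retest of ultra-high-throughput screening hits for modulation of myocardial damage; cell death induced by hydrogen peroxide oxidative stress; compound pretreatment for 60 min then peroxide exposure for 2 h; potency is for protecting the cells against peroxide damage rather than for killing them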
# Cytochrome P450 3A4 = Cytochrome P450 3A4 (Homo sapiens, UniProt P08684);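 also: CYP3A4 tested as one member of a cytochrome P450 panel screen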
# Sequence of Cytochrome P450 3A4 (P08684 whole entry): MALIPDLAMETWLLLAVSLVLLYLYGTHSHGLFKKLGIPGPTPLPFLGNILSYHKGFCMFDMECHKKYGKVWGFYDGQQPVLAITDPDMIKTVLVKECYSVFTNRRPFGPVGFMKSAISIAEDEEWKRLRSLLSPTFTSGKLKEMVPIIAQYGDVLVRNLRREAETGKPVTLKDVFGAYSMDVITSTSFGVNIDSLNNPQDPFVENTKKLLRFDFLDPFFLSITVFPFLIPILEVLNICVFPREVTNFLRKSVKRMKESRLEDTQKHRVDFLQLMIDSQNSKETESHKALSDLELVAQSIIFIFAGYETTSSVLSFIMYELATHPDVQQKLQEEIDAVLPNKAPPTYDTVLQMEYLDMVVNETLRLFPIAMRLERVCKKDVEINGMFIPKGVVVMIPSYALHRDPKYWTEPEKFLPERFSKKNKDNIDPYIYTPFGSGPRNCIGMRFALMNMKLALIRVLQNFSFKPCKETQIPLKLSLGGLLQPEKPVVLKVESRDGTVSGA
# Cytochrome P450 1A2 = biological target: T1, Cytochrome P450 1A2 (Homo sapiens, UniProt P05177);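 also: PubChem cytochrome P450 panel assay, CYP1A2 panel member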
# T1 sequence (P05177 whole entry): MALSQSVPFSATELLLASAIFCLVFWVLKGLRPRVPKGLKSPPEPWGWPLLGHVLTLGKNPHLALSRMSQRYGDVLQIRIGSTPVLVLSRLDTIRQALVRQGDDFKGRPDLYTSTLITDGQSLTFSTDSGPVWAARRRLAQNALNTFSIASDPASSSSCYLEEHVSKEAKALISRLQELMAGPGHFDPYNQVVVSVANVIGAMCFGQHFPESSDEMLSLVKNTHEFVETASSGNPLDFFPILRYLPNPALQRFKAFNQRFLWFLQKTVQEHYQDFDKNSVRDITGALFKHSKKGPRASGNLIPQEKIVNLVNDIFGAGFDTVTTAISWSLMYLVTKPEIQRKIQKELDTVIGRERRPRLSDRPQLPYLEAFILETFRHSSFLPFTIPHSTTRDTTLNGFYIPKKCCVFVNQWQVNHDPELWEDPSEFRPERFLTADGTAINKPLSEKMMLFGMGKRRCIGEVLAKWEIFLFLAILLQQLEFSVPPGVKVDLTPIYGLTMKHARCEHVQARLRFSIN
# Cytochrome P450 2C19 = Cytochrome P450 2C19 (Homo sapiens, UniProt P33261); test: Cytochrome panel assay with activity outcomes. Panel member name: p450-cyp2c19 Compounds with AC50 equal or less than 10 uM are considered active; format: functional; conditions: read-out: AC50
# Sequence of Cytochrome P450 2C19 (P33261 whole entry): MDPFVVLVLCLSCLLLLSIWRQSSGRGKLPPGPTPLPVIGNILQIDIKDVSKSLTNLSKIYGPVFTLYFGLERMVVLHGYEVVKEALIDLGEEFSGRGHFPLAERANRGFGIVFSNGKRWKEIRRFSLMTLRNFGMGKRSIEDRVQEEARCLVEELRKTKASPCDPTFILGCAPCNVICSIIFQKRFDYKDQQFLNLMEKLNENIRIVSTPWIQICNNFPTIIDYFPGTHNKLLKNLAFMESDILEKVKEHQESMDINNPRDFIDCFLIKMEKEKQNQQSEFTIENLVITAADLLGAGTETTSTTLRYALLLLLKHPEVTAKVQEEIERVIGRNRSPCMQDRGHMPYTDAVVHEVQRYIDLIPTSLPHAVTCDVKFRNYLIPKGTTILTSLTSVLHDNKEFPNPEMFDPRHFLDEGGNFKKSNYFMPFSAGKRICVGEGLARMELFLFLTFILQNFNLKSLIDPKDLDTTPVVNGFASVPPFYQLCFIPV
# Cytochrome P450 2C9 [2] = biological target: T2, Cytochrome P450 2C9 (Homo sapiens, UniProt P11712)
# T2 sequence (P11712 whole entry, the tested form may be a part): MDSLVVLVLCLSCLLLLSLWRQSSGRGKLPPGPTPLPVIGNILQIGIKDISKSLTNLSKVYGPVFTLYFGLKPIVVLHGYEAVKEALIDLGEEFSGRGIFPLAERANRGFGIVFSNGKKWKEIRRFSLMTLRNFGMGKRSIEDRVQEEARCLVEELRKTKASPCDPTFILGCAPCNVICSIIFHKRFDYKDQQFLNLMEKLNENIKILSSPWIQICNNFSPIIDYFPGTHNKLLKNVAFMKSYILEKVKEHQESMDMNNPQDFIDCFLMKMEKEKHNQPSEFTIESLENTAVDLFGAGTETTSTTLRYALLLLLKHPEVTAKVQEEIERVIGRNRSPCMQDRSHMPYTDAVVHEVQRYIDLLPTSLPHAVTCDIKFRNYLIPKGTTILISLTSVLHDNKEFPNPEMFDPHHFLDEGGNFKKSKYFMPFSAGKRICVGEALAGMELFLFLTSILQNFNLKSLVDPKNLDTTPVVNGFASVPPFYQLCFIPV
# [3] = ZM109 Env clade C HIV-1 fusion inhibitors, dose response, HeLa effector, CEM target cells, luciferase, cherry-pick (AID 652058); format: functional, cell-based
# [4] = inhibitors of HIV Env-driven cell fusion, dose response, cherry-pick (AID 652057); format: functional, cell-based
# [5] = inhibitors of clade B AD8 Env fusion, dose response, cell-based, cherry-pick (AID 652062); format: functional;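 also: luciferase signal from cell-cell fusion driven by HIV-1 clade B AD8 Env; potency is for inhibitors of fusion seen as a drop in luminescence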
# Nonstructural protein 1 = Nonstructural protein 1 (Influenza A virus, UniProt Q194T2); format: functional, Influenza A virus (A/California/07/2009(H1N1))
# Sequence of Nonstructural protein 1 (Q194T2 whole entry): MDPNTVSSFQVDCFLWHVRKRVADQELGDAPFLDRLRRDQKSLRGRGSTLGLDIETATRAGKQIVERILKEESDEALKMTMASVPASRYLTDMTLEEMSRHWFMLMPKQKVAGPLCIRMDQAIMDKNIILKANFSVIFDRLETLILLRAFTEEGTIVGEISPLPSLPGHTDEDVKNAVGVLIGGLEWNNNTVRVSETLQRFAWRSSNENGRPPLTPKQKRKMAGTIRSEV
# [6] = HepG2 cell cytotoxicity, dose response, cytotoxicity control for Shn3 inhibitor project, CellTiter-Glo, cherry-picked (AID 624134); format: functional, cell-based
# [7] = Shn3 3'UTR reporter inhibitors, dose response, cell-based, Clone20 osteoblasts, firefly luciferase, cherry-picked (AID 624132); format: functional;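 also: firefly luciferase luminescence from reporter carrying the Shn3 3'UTR in osteoblasts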
# [8] = control 3'UTR Renilla luciferase suppression, dose response, counter-screen for Shn3 inhibitor project, cell-based, Clone20-Shn3RL, cherry-picked (AID 624133); format: functional
# [9] = intracellular Trypanosoma cruzi inhibitors in host cells – cell-based, plate reader, cherry-pick samples, set 3, dose response (AID 651818); format: functional;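 also: compounds incubated with infected cells for about four days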
# [10] = HEp-2 cell cytotoxicity, dose response, cytotoxicity control for RSV inhibitor project, HTS (AID 2410); format: functional; conditions: human respiratory syncytial virus
# Cytochrome P450 2C9 [11] = biological target: T2, Cytochrome P450 2C9; remark: listed apart in the source
# [12] = biological target: Induced myeloid leukemia cell differentiation protein Mcl-1 (Homo sapiens, UniProt Q07820); format: functional
# Sequence of Induced myeloid leukemia cell differentiation protein Mcl-1 (Q07820 whole entry): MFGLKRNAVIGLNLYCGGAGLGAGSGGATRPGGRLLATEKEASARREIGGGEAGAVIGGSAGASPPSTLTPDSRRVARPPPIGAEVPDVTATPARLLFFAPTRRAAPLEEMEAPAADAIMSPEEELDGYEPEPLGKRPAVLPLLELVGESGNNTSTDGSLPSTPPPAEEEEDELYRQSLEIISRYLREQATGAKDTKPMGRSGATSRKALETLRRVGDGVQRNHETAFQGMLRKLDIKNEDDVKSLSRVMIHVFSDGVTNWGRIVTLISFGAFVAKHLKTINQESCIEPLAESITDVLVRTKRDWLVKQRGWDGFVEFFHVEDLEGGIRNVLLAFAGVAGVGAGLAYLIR
# Sequence of FAD-linked sulfhydryl oxidase ALR (P55789 whole entry): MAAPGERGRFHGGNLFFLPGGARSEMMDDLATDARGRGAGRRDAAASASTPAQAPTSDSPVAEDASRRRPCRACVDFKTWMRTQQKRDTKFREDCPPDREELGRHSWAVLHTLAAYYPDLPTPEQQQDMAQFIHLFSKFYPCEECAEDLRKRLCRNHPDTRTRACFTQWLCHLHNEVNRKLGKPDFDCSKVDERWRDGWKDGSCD
smiles,measurement,setting,value
O=C1CSC(c2ccccn2)N1c1ccccc1 (stereo unspecified),AC50,[1],0.225 µM (active)
CS/C(=N\S(=O)(=O)c1ccccc1)c1ccccc1,IC50,H9c2,> 79 µM (inactive)
O=C(NCC(=O)N(Cc1cccs1)C(C(=O)NC1CCCCC1)c1ccco1)c1ccco1 (stereo unspecified),IC50,H9c2,7.48 µM (active)
CCOc1ccc(C(=O)Nc2cccc(-c3nc4cccnc4o3)c2)cc1Cl,AC50,Cytochrome P450 3A4,6.31 µM (inconclusive)
same,IC50,H9c2,> 79 µM (inactive)
same,AC50,Cytochrome P450 1A2,5.01 µM (inconclusive)
same,AC50,Cytochrome P450 2C19,14.1 µM (inconclusive)
same,AC50,Cytochrome P450 2C9 [2],14.1 µM (inconclusive)
Cc1ccc(N2CCN(C(=O)N3CCCC3)CC2)cc1Cl,AC50,[1],27.2 µM (active)
O=C(Nc1ccc(N2CCCCC2)cc1)c1cccnc1,AC50,[1],21.6 µM (active)
CCOC(=O)c1cc2c(=O)n3cccc(C)c3nc2n(CCCOC)/c1=N\C(=O)c1cccnc1,IC50,H9c2,> 79 µM (inactive)
Cc1noc(C)c1S(=O)(=O)N(C)C[C@@H]1Oc2ccc(NC(=O)NC3CCCCC3)cc2CC(=O)N([C@@H](C)CO)C[C@@H]1C,AC50,[3],7.36 µM (active)
same,AC50,[4],9.11 µM (active)
same,AC50,[5],5.37 µM (active)
Oc1cc(-c2cccnc2)cc2cccnc12,IC50,Nonstructural protein 1,15.6 µM (active)
same,AC50,[6],10.9 µM (active)
same,AC50,[7],9.27 µM (active)
same,AC50,[8],4.04 µM (active)
Cc1ccc(S(=O)(=O)Nc2ccc3c(c2)CC(=O)N([C@H](C)CO)C[C@@H](C)[C@@H](CN(C)S(=O)(=O)c2ccc(C)cc2)O3)cc1,AC50,[9],4.11 µM (active)
C[C@@H]1CCCCO[C@@H](CN(C)C(=O)Nc2ccc(C(F)(F)F)cc2)[C@@H](C)CN([C@H](C)CO)C(=O)c2cc(NC(=O)Nc3ccc(F)cc3)ccc2O1,AC50,[9],4.68 µM (active)
Sc1nnc(-c2ccccn2)n1/N=C/c1ccc(-c2ccccc2Cl)o1,CC50,[10],> 50 µM (active)
same,AC50,[1],5.29 µM (active)
Cc1[nH]n(-c2ccccc2)c(=O)c1CCOC(=O)c1cccc(C(F)(F)F)c1,AC50,Cytochrome P450 1A2,22.4 µM (inconclusive)
same,AC50,Cytochrome P450 2C9 [11],inconclusive
C[C@@H]1CN([C@H](C)CO)C(=O)Cc2cc(NC(=O)Nc3ccc(C(F)(F)F)cc3)ccc2O[C@@H]1CN(C)Cc1ccncc1,AC50,[9],2.05 µM (active)
C[C@H](CO)N1C[C@H](C)[C@@H](CN(C)Cc2ccc(Cl)c(Cl)c2)Oc2c(NC(=O)c3ccncc3)cccc2C1=O,AC50,[9],0.08 µM (active)
Cc1nn(Cc2ccc(F)cc2)c2sc(C(=O)Nc3ccc(N4CCOCC4)cc3N3CCOCC3)cc12,IC50,[12],2.73 µM (not active)
CC(=O)NCCNc1nc2c(-c3ccccc3)nnn2c2ccccc12,IC50,H9c2,> 79 µM (inactive)
COc1ccc([Si](C)(C)[C@@H]2[C@@H](CCO)O[C@]3(C(=O)N4c5c(cc(OC)cc53)C(C)=CC4(C)C)[C@H]2C)cc1,AC50,[3],17.2 µM (active)
same,AC50,[4],11.8 µM (active)
same,AC50,[5],16.8 µM (active)
